Source: the supplement of paper PMC13380429

What was measured:
Details in all cases: 72 h
U2OS [1] = experiment: relative viability EC50 (midpoint between 100% and the lowest measured viability); higher = less toxic
Vero E6 [2] = experiment: as above
Caco-2 [3] = experiment: as above
HepG2 [4] = experiment: as above
Calu-3 [5] = experiment: as above
U2OS [6] = experiment: cell viability relative to DMSO; higher = less toxic
Vero E6 [7] = experiment: as above
Caco-2 [8] = experiment: as above
HepG2 [9] = experiment: as above
Calu-3 [10] = experiment: as above
U2OS [11] = experiment: drug sensitivity score (DSS) for viability; higher = more toxic; extreme values may be limits of the assay
Vero E6 [12] = experiment: as above
Caco-2 [13] = experiment: as above
HepG2 [14] = experiment: as above
Calu-3 [15] = experiment: as above

| Structure (SMILES) | relative viability EC50 (U2OS [1]) [µM] | relative viability EC50 (Vero E6 [2]) [µM] | relative viability EC50 (Caco-2 [3]) [µM] | relative viability EC50 (HepG2 [4]) [µM] | relative viability EC50 (Calu-3 [5]) [µM] | cell viability (U2OS [6]; 1 nM) [%] | cell viability (U2OS [6]; 10 nM) [%] | cell viability (U2OS [6]; 100 nM) [%] | cell viability (U2OS [6]; 1000 nM) [%] | cell viability (U2OS [6]; 10000 nM) [%] | cell viability (Vero E6 [7]; 1 nM) [%] | cell viability (Vero E6 [7]; 10 nM) [%] | cell viability (Vero E6 [7]; 100 nM) [%] | cell viability (Vero E6 [7]; 1000 nM) [%] | cell viability (Vero E6 [7]; 10000 nM) [%] | cell viability (Caco-2 [8]; 1 nM) [%] | cell viability (Caco-2 [8]; 10 nM) [%] | cell viability (Caco-2 [8]; 100 nM) [%] | cell viability (Caco-2 [8]; 1000 nM) [%] | cell viability (Caco-2 [8]; 10000 nM) [%] | cell viability (HepG2 [9]; 1 nM) [%] | cell viability (HepG2 [9]; 10 nM) [%] | cell viability (HepG2 [9]; 100 nM) [%] | cell viability (HepG2 [9]; 1000 nM) [%] | cell viability (HepG2 [9]; 10000 nM) [%] | cell viability (Calu-3 [10]; 1 nM) [%] | cell viability (Calu-3 [10]; 10 nM) [%] | cell viability (Calu-3 [10]; 100 nM) [%] | cell viability (Calu-3 [10]; 1000 nM) [%] | cell viability (Calu-3 [10]; 10000 nM) [%] | drug sensitivity score (U2OS [11]) | drug sensitivity score (Vero E6 [12]) | drug sensitivity score (Caco-2 [13]) | drug sensitivity score (HepG2 [14]) | drug sensitivity score (Calu-3 [15]) |
| --- | --- | --- | --- | --- | --- | --- | --- | --- | --- | --- | --- | --- | --- | --- | --- | --- | --- | --- | --- | --- | --- | --- | --- | --- | --- | --- | --- | --- | --- | --- | --- | --- | --- | --- | --- |
| Ic1cncc(OC[C@@H]2CCN2)c1 | > 10 | > 10 | > 10 | > 10 | > 10 | 92.1 | 102 | 96.7 | 99.5 | 106 | 97.4 | 92.7 | 96.6 | 95.3 | 102 | 102 | 97.2 | 94 | 100 | 108 | 94 | 94 | 99.4 | 98 | 105 | 98.4 | 98.4 | 102 | 97 | 102 | 0 | 0 | 0 | 0 | 0 |
| NC(=O)c1ccc(-c2nc(-c3ccccn3)c(-c3ccc4c(c3)OCO4)[nH]2)cc1 | > 10 | > 10 | > 10 | > 10 | > 10 | 91.2 | 96.6 | 96 | 97.1 | 92.4 | 98.3 | 92.4 | 96.1 | 97.8 | 105 | 89.3 | 106 | 92.5 | 106 | 101 | 107 | 93.6 | 103 | 96 | 83.9 | 92.2 | 95 | 91.9 | 110 | 103 | 0 | 0 | 0 | 0.7 | 0 |
| O=C(c1c(O)nc2cc(Cl)ccc2c1O)C1CC1 | > 10 | > 10 | > 10 | > 10 | > 10 | 99.9 | 98.6 | 102 | 96 | 98.1 | 90.4 | 98.6 | 90.1 | 95.9 | 109 | 94.7 | 91.3 | 90.1 | 93.5 | 98.4 | 97.7 | 112 | 89.6 | 102 | 104 | 96.5 | 88.1 | 106 | 97.1 | 96.5 | 0 | 0 | 0 | 0 | 0 |
| O=c1[nH]c(CCl)nc2sc3c(c12)CCCC3 | > 10 | > 10 | – | > 10 | > 10 | 103 | 94.5 | 98.8 | 100 | 80.6 | 99.4 | 101 | 95.8 | 96.4 | 92.9 | 96.8 | 99.1 | 98.3 | 98.8 | 71 | 92.7 | 94.5 | 96.2 | 107 | 81.8 | 116 | 98.1 | 97.9 | 92 | 109 | 0.5 | 0 | 1.4 | 0.2 | 0 |
| OCCC#Cc1nc(-c2ccc(F)cc2)c(-c2ccncc2)n1CCCc1ccccc1 | > 10 | > 10 | > 10 | > 10 | > 10 | 95.9 | 92 | 94.7 | 90.1 | 79.7 | 92.5 | 99.7 | 87 | 85 | 100 | 98.4 | 106 | 91.6 | 91.6 | 78.6 | 90.4 | 99.5 | 105 | 99.6 | 93.9 | 101 | 100 | 83.6 | 90.2 | 79.7 | 1.1 | 0 | 1.2 | 0 | 2.2 |
| c1ccc(-c2n[nH]cc2-c2ccnc3ccccc23)nc1 | > 10 | > 10 | > 10 | > 10 | > 10 | 94.1 | 97.9 | 95.9 | 98.9 | 91.4 | 94.1 | 99.4 | 99.4 | 89.3 | 104 | 96.4 | 93.1 | 92.7 | 103 | 97.3 | 110 | 96.4 | 107 | 102 | 116 | 95.5 | 105 | 110 | 105 | 105 | 0 | 0 | 0 | 0 | 0 |
